# Assays:
# H1155 cells = assay: H1155 cell viability with tool compounds alone or combined; format: cell-based; conditions: compared to AURKB inhibition
# SCLC cell lines = assay: viability of SCLC cell lines; format: cell-based; conditions: 72 hours treatment
# NSCLC cell lines = assay: viability-based drug screen and dose response; conditions: 72 hours treatment; screen at 0.5 μM and 2.5 μM, confirmed in 14 NSCLC cell lines
# MEK2 = conditions: read-out: IC50 MEK2; second value of MEK1/2 pair; ref Yamaguchi et al., 2011; cited from earlier work
# FAK autophosphorylation = FAK autophosphorylation immunoblot; format: cell-based; conditions: at the concentrations used
# [1] = system: tyrosine phosphorylated FER in H1155 cells; assay: pY immunoprecipitation of FER; format: cell-based; conditions: 3 hours, 1 μM
# H1155 and A427 cells [2] = format: cell-based; conditions: 0.5 μM and 1 μM, 24 hours (blot), 24 and 48 hours (imaging)
# A427 cells = assay: crystal violet clonogenic assay; format: cell-based; conditions: 10 days
# MEK1 = MEK1 (Homo sapiens, UniProt Q02750); assay: in vitro kinase assay MEK1; format: biochemical; conditions: 10 μM ATP; compared with cabozantinib
# Chain of MEK1 (Q02750 whole entry): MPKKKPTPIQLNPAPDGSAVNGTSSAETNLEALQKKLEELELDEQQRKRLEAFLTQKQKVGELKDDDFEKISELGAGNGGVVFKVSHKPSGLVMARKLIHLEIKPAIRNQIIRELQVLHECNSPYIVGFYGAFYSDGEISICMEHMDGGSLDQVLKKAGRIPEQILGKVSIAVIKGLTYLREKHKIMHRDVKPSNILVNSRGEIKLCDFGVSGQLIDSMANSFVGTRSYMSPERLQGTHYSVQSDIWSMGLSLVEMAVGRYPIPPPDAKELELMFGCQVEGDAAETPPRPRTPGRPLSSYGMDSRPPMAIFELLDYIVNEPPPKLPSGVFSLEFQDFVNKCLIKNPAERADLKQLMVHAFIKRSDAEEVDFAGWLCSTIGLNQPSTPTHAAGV
# [3] = system: histone H3 at S10 (downstream target of AURKB); assay: Western blot of pH3; format: cell-based; conditions: H1155 cells, 6 hours, 0.05, 0.25 and 0.5 μM
# AURKA = target: T1, AURKA (Homo sapiens, UniProt O14965); assay: in vitro kinase assay AURKA; format: biochemical; conditions: 10 μM ATP; compared with cabozantinib
# T1 sequence (O14965 1-403): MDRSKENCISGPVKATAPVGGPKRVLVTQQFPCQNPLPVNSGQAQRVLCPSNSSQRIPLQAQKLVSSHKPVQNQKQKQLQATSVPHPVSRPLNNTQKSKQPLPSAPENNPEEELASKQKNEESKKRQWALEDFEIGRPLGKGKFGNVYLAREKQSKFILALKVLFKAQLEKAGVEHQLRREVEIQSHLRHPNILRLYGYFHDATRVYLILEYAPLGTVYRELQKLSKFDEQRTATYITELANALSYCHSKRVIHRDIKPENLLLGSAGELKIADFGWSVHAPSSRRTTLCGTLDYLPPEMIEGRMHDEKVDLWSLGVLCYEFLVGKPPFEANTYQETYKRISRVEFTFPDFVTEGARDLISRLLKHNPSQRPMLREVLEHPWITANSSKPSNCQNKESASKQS
# H1155 and A427 cells [4] = assay: cell cycle analysis; format: cell-based; conditions: 6 hours
# AURKB = AURKB (Homo sapiens, UniProt Q96GD4); assay: in vitro kinase assay AURKB; format: biochemical; conditions: 10 μM ATP; compared with cabozantinib
# Chain of AURKB (Q96GD4 whole entry): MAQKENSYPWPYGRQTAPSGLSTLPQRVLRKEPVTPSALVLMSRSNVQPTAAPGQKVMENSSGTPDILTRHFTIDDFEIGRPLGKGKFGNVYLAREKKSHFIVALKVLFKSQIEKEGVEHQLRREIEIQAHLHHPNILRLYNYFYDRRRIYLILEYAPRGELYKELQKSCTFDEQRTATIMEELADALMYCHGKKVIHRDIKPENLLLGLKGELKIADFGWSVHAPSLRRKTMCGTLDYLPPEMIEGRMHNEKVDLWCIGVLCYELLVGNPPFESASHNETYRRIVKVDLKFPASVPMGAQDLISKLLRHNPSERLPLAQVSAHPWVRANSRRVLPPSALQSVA
# SRC = SRC (Homo sapiens, UniProt P12931); assay: in vitro kinase assay SRC; format: biochemical; conditions: 10 μM ATP; compared with cabozantinib
# Chain of SRC (P12931 whole entry): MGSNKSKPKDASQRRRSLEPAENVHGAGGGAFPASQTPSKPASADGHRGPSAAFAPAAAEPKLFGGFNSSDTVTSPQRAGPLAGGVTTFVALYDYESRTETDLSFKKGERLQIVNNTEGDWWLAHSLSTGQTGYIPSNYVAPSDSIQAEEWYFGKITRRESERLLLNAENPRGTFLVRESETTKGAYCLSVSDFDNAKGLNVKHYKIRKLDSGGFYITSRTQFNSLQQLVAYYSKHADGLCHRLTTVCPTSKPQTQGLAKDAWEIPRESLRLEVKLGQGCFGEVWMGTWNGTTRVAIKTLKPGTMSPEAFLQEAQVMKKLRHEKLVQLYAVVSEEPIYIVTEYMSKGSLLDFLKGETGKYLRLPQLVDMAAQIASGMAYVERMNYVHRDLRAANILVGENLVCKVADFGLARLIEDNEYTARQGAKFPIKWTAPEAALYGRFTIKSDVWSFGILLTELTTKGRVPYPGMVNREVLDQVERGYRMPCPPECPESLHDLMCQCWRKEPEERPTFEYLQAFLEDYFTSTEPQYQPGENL
# [5] = system: pERK at T202/Y204 (substrate sites of MEK1/2); assay: Western blot of pERK; format: cell-based; conditions: H1155 and A427 cells; 1 hour; 0.1, 0.5 and 1 μM
# [6] = system: SRC autophosphorylation at Y419 in H1155 cells; assay: SRC autophosphorylation at Y419; format: cell-based; conditions: data not shown
# FER = FER (Homo sapiens, UniProt P16591); assay: in vitro kinase assay FER; format: biochemical; conditions: 10 μM ATP; compared with cabozantinib
# Chain of FER (P16591 whole entry): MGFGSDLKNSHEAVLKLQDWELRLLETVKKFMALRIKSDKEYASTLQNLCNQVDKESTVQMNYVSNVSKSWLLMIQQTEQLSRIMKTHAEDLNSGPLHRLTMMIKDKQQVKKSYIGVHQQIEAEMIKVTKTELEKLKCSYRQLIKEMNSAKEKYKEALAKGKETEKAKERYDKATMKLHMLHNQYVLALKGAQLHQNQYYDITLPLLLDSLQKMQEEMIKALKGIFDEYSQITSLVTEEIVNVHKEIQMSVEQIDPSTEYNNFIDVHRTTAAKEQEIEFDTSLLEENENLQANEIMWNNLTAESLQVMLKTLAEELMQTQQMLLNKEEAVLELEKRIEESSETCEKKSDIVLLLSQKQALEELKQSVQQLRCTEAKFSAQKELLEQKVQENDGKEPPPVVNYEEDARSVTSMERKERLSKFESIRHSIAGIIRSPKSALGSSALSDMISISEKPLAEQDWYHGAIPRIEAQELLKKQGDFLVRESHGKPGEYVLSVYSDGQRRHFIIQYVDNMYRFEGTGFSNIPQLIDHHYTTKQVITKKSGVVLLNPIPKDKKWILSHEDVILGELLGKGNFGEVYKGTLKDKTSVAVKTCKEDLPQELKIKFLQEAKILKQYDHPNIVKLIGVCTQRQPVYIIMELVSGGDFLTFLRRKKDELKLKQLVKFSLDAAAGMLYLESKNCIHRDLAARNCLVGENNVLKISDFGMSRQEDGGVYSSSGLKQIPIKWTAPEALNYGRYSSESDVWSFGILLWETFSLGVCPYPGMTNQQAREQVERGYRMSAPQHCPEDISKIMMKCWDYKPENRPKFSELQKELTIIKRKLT
# [7] = system: MET autophosphorylation in H1648 cells
# MET = MET (Homo sapiens, UniProt P08581); assay: pulldowns with H1648 lysate and in vitro MET kinase assays of probes; format: biochemical
# Chain of MET (P08581 25-1390): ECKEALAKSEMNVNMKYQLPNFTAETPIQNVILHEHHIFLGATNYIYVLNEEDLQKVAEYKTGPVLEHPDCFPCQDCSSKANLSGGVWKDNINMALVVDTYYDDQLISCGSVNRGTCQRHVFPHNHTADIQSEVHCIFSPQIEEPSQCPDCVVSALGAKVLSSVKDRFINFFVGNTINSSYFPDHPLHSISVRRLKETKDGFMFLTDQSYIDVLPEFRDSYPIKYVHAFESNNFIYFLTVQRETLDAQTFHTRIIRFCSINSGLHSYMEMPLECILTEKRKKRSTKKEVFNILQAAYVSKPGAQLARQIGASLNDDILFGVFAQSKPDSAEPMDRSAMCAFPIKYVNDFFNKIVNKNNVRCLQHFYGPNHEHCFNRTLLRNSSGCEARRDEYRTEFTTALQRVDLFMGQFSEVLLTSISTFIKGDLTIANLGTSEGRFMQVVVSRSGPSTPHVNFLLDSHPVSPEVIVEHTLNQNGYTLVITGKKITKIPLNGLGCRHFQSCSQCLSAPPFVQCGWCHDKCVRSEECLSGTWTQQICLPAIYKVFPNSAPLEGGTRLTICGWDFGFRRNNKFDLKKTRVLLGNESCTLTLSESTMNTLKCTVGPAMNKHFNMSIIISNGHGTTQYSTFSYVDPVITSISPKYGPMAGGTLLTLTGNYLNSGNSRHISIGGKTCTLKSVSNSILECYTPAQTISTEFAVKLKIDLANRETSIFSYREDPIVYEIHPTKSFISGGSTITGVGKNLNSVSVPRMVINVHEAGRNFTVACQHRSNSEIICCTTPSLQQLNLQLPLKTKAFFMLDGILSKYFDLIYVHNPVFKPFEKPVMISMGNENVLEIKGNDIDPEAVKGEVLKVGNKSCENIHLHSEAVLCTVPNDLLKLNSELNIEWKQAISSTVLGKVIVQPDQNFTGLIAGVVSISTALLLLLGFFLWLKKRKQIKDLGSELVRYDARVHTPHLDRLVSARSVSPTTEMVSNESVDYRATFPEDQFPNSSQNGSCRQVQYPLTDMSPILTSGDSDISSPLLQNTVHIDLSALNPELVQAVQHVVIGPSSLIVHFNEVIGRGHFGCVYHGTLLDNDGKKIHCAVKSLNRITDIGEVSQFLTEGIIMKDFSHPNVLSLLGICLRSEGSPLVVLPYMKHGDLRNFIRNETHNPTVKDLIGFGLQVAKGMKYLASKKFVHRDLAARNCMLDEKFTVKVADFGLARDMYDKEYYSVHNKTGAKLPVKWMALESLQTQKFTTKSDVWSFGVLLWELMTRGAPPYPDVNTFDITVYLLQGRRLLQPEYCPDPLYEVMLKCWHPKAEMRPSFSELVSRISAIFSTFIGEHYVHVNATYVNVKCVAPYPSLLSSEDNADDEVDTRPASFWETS
structure (smiles),measurement,setting,value
COc1cc(Nc2ncc3c(n2)-c2ccc(Cl)cc2C(c2c(F)cccc2OC)=NC3)ccc1C(=O)O [alisertib],decrease of H1155 viability on combining with FER and MEK1/2 inhibition,H1155 cells,only in a minor decrease of viability
OCCn1cc(-c2cnc3nnn(Cc4ccc5ncccc5c4)c3n2)cn1 [PF-04217903],effect on viability of SCLC cells,SCLC cell lines,no effect on SCLC cells
same,effect on viability of NSCLC cell lines,NSCLC cell lines,little to no effects
CNC(=O)c1c(F)cccc1Nc1nc(Nc2cc3c(cc2OC)CCN3C(=O)CN(C)C)nc2[nH]ccc12 [GSK1838705A],FAK autophosphorylation,FAK autophosphorylation,not affected
same,phosphorylation changes of FER (pY immunoprecipitation),[1],phosphorylation changes of FER
COc1cc2c(Oc3ccc(NC(=O)C4(C(=O)Nc5ccc(F)cc5)CC4)cc3F)ccnc2cc1OCCCN1CCOCC1 [foretinib],"induction of apoptosis (PARP1 and caspase 3 cleavage, caspase 3/7)",H1155 and A427 cells [2],induced apoptosis
same,"inhibition of A427 cell growth, clonogenic assay",A427 cells,inhibited A427 cell growth
same,"MEK1 inhibition, in vitro kinase assay",MEK1,more potently inhibited by foretinib than by cabozantinib
same,phosphorylation of histone H3 at S10,[3],decreased phosphorylation of histone H3 at S10
same,"AURKA inhibition, in vitro kinase assay",AURKA,more potently inhibited by foretinib than by cabozantinib
same,drug-induced cell cycle changes,H1155 and A427 cells [4],pronounced accumulation of cells in G2 phase
same,"AURKB inhibition, in vitro kinase assay",AURKB,more potently inhibited by foretinib than by cabozantinib
same,FAK autophosphorylation,FAK autophosphorylation,not affected
same,"SRC inhibition, in vitro kinase assay",SRC,more potently inhibited by foretinib than by cabozantinib
same,effect on viability of SCLC cells,SCLC cell lines,"potently inhibited viability of MYC-amplified SCLC cells, but not SCLC cells without MYC amplification"
same,effect on viability of NSCLC cell lines,NSCLC cell lines,much higher cellular activity compared to cabozantinib
same,phosphorylation changes of FER (pY immunoprecipitation),[1],phosphorylation changes of FER
same,phosphorylation of pERK at T202/Y204,[5],decreased phosphorylation of pERK
same,SRC autophosphorylation at Y419,[6],did not decrease SRC autophosphorylation
same,"FER inhibition, in vitro kinase assay",FER,more potently inhibited by foretinib than by cabozantinib
CC1(C)CNc2cc(NC(=O)c3cccnc3NCc3ccncc3)ccc21 [motesanib],effect on viability of SCLC cells,SCLC cell lines,no effect on SCLC cells
same,effect on viability of NSCLC cell lines,NSCLC cell lines,little to no effects
COc1cc2nccc(Oc3ccc(NC(=O)C4(C(=O)Nc5ccc(F)cc5)CC4)cc3)c2cc1OC [cabozantinib],"inhibition of A427 cell growth, clonogenic assay",A427 cells,in contrast to cabozantinib
same,inhibition of MET autophosphorylation,[7],inhibited MET autophosphorylation
same,effect on viability of SCLC cells,SCLC cell lines,in contrast to cabozantinib
same,effect on viability of NSCLC cell lines,NSCLC cell lines,little to no effects
same,phosphorylation of pERK at T202/Y204,[5],in contrast to cabozantinib
"COc1cc2c(Oc3ccc(N(C(=O)C4(C(N)=O)CC4)c4ccc(F)cc4)cc3F)ccnc2cc1OCCCN1CCN(CCCN)CC1 [i-foretinib, N-(4-((7-(3-(4-(3-aminopropyl)piperazin-1-yl)propoxy)-6-methoxyquinolin-4-yl)oxy)-3-fluorophenyl)-N-(4-fluorophenyl)cyclopropane-1,1-dicarboxamide]",ability to bind and inhibit MET,MET,retained their ability to bind and inhibit MET

# — PMC6754293 (Cell chemical biology, 2019)
